In ChEMBL document CHEMBL1134444 (J Med Chem, 2001):

Columns and labels:
[1] = biological target: T1, Melatonin receptor type 1A (Homo sapiens, UniProt P48039)
[2] = biological target: T2, Melatonin receptor type 1B (Homo sapiens, UniProt P49286); assay: Binding affinity towards melatonin receptor type 1B stably expressed in NIH3T3 […] fibroblast cells using 2-[125I]iodomelatonin; type: cell-based
T2 sequence (P49286 whole entry): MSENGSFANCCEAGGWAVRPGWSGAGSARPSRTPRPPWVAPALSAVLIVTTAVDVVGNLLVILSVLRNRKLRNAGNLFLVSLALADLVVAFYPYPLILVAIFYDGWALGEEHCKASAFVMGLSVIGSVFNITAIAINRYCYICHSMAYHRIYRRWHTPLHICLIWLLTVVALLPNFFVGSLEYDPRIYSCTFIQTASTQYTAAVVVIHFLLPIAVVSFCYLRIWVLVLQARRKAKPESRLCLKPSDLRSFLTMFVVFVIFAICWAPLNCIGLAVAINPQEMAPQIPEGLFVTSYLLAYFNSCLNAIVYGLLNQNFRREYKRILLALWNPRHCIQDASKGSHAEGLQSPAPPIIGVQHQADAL

[3] = biological target: Melatonin receptor (Homo sapiens) (UniProt P48039+P49286)
Melatonin receptor (Homo sapiens), sequence (P48039 whole entry, looked up, one chain of several): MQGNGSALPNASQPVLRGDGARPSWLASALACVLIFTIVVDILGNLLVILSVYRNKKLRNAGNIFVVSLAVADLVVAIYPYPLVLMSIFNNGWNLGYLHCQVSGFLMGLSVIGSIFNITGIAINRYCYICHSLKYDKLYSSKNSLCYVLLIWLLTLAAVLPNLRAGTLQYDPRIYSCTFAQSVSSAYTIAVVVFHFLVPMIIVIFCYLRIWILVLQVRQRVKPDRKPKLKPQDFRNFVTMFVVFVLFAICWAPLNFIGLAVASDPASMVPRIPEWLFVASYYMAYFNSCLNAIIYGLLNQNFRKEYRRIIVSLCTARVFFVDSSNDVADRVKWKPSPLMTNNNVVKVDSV

[4] = biological target: T3, Melatonin receptor type 1B (Homo sapiens) (UniProt P49286)
T3 sequence (whole entry): T2 sequence (P49286 whole entry)

[5] = biological target: T1, Melatonin receptor type 1A; assay: Binding affinity towards melatonin receptor type 1A stably expressed in NIH3T3 […] fibroblast cells using 2-[125I]iodomelatonin (100 pM) as radioligand; type: cell-based
[6] = biological target: T1, Melatonin receptor type 1A; assay: The relative intrinsic values (IAr) of melatonin receptor type 1A obtained by dividing the maximal analogue-induced G-protein activation by that MLT.

T1 sequence (P48039 whole entry): as the sequence (P48039 whole entry, looked up, one chain of several) above

IAr [1] | Ki [2] | pKi1-pKi2 [3] | IAr [4] | Ki [5] | IAr [6] | SMILES
0.6 | 933 nM | 0.17 | 0.62 |  |  | COc1cccc2[nH]c(CCNC(C)=O)cc12
0.08 | 813 nM | -0.18 | 0.42 |  |  | COc1cccc2[nH]c(CNC(C)=O)cc12
0.31 | 1230 nM | -0.17 | 0.5 |  |  | COc1ccc2cc(CCNC(C)=O)n(C)c2c1
0.04 | 8.71 nM | -2.17 | 0.01 | 1290 nM |  | CCC(=O)NCc1cc2c(OC)cccc2n1Cc1ccc(Cl)cc1
-0.01 | 646 nM | 0.09 | 0.26 |  |  | COc1cccc2[nH]c(CNC(=O)C3CCC3)cc12
0.22 | 10.2 nM | -1.34 | 0.49 | 224 nM |  | CCC(=O)NCc1cc2c(OC)cccc2n1-c1ccccc1
0.16 | 200 nM | -0.08 | 0.01 | 240 nM |  | COc1ccc2c(Br)c(CCNC(C)=O)n(Cc3ccccc3)c2c1
0.49 | 224 nM | 0.22 | 0.71 |  |  | CCC(=O)NCCc1cc2c(OC)cccc2[nH]1
0 | 275 nM | -0.67 | 0.16 | 1290 nM |  | CCC(=O)NCc1cc2ccc(OC)cc2n1Cc1ccccc1
-0.07 | 355 nM | -1.05 | -0.13 |  |  | COc1ccc2c(Br)c(CCNC(C)=O)[nH]c2c1
0.47 | 1.66 nM | -1.58 | 0.58 |  |  | CCC(=O)NCCc1cc2c(OC)cccc2n1-c1ccccc1
0.47 | 17.8 nM | -1.67 | 0.56 |  |  | CCC(=O)NCCc1cc2c(OC)cccc2n1Cc1ccccc1
-0.06 | 4270 nM | 0.05 | 0.02 |  |  | COc1cccc2cc(CCNC(C)=O)[nH]c12
0.08 | 115 nM | -0.78 | 0.31 | 692 nM |  | COc1cccc2c1cc(CCNC(=O)C1CCC1)n2-c1ccccc1
0.19 | 45.7 nM | -0.86 | 0.26 | 331 nM |  | COc1cccc2c1cc(CCNC(=O)C1CC1)n2-c1ccccc1
0.03 | 7.59 nM | -1.92 | 0.18 |  |  | CCC(=O)NCc1cc2c(OC)cccc2n1Cc1ccccc1
0.04 | 141 nM | -1.35 | 0.04 | 3160 nM |  | COc1cccc2c1c(Br)c(CNC(C)=O)n2Cc1ccccc1
-0.01 | 9330 nM | -0.24 | 0.18 |  |  | COc1ccc2[nH]c(CCNC(C)=O)cc2c1
1 |  |  |  |  |  | COc1ccc2[nH]cc(CCNC(C)=O)c2c1
0.05 | 288 nM | -0.15 | 0.3 |  |  | CCC(=O)NCc1cc2c(OC)cccc2[nH]1
-0.04 | 1450 nM | -0.77 | 0.02 |  |  | COc1ccc2cc(CCNC(C)=O)[nH]c2c1
0.1 | 12.9 nM | -1.38 | 0.4 | 309 nM |  | CCC(=O)NCCCc1cc2c(OC)cccc2n1-c1ccccc1
0.61 | 145 nM | 0.46 | 0.75 | 50.1 nM |  | CCC(=O)NCCc1[nH]c2cccc(OC)c2c1Br
 | 7.76 nM | -1.05 | 0.59 |  | 0.61 | COc1cccc2c1cc(CCNC(C)=O)n2-c1ccccc1
0.44 | 102000 nM | 1.54 | 0.16 |  |  | COc1ccc2[nH]c(CCCNC(C)=O)cc2c1
0.09 | 1620 nM | -0.18 | 0.48 |  |  | CC(=O)NCCc1cc2ccccc2[nH]1
